Molecules are shown by their SMILES.

In data set [1] the test system is EV-A71. The experiment in a line: Immunofluorescence-based preliminary screen of EV-A71-infected RD cells. The conditions noted are these: EV-A71-infected RD cells (MOI = 1). The data set is classed as cell-based, human enterovirus A71 (EV-A71) strain 41. The source says: The screening assay was built using an immunofluorescence approach that was previously established and validated, with DAPI-stained nuclei accounting for total cell count and FITC-stained EV-A71 accounting for infected cell count upon EV-A71 infection and compound treatment. Both cell counts would then be used to calculate percentage infection and percentage inhibition to identify for hits. Before the screening platform can be employed to screen for potential antivirals, its robustness has to be appraised. In this study, Z-factor was calculated to assess the robustness of the screening platform. Firstly, seeded RD cells were either infected with EV-A71 (Multiplicity of Infection of 1) or mock-infected with media. The cells were then fixed, stained and imaged 12 h post-infection (hpi). The IFA images were analyzed with the Cell Profiler software to determine the infection rate of each well. Between the virus-infected and mock-infected wells, a clear distinction in infection rates could be observed (Figure 1a). […] In this case, the Z-factor, measured at 0.818, was indicative of a highly robust screening platform for high-throughput screening. The constructed screening platform was then employed to screen the compound library made up of 344 chemically synthesized novel compounds analogous to andrographolide. The compounds were screened at 10 µM with IFA images taken and analyzed to identify for hits. Treatment with 0.1% DMSO was used as vehicle control.
Seeded 96-well plates (Corning Inc., Corning, NY, USA), with 2 × 10^4 RD cells per well, were incubated overnight at 37 °C with 5% CO2. The seeded cells were then infected with EV-A71 (50 µL per well, MOI = 1) for 1 h at 37 °C with 5% CO2. The EV-A71-infected cells were then treated with the compound library at a final concentration of 10 µM for 12 h at 37 °C with 5% CO2. Treatment with 0.1% DMSO was used as vehicle control. Following treatment, cells were fixed with 100 µL of methanol (Sinopharm Chemical, Shanghai, China) for 15 min at −20°C and rinsed with 100 µL of 1x PBS for three times before performing indirect immunofluorescence assay (IFA). Anti-EV-A71 VP2 1° antibodies, MAB979 (Merck Millipore, Burlington, VT, USA), diluted 500-fold in PBS, was incubated with the fixed cells for 1 h at 37 °C. Cells were then rinsed thrice with PBS and incubated with anti-mouse FITC 2° antibodies (Merck Millipore), diluted 200-fold in PBS, for 1 h at 37 °C. After which, the cells were rinsed thrice with PBS before staining with DAPI (Sigma-Aldrich) at room temperature for 15 min. Cells were then rinsed thrice and preserved in 100 µL of PBS before imaging with the Operetta High-Content Imaging System and the Harmony High-Content Imaging and Analysis Software (Perkin Elmer, Waltham, MA, USA). Images of stained cells were captured with the DAPI and FITC fluorescence filters, from a pre-determined central position of each well and processed with the Cell Profiler software. […] The percentage infection (PI) for each well was calculated using the formula: Infected cell count/Total cell count × 100%. The percentage inhibition for each well was calculated using the formula PI0− PI/PI0 × 100% where PI0 refers to the percentage infection of wells treated with the vehicle control while PI refers to the percentage infection of wells treated with the compounds.

The next data set deals with RD cells. The data set can be described thus: Cell viability assay (alamarBlue). The data set is classed as cell-based, human. The conditions noted are these: 10 µM, 12 h. The procedure:
(§1) Firstly, we performed cell viability assay to evaluate the cytotoxicity profile of the 19 hits. Cells seeded overnight were treated with the hit compounds at 10 µM. […] Anti-EV-A71 activity of AGP-253 had been illustrated and discussed previously. We were particularly interested in ZAF-46 and ZAF-47 as they belonged to the same series bearing novel 14-quinolinoxy and 17-hydro-8,9-olefin modifications (Figure 2b) that could potentially open up new targets for EV-A71 therapeutics. Additional cell viability assays were performed for ZAF-46 and ZAF-47 at different concentrations to identify the low cytotoxic concentrations for downstream post-treatment assays. For post-treatment assays, cells seeded overnight were infected with EV-A71 and subsequently treated with ZAF-46 and ZAF-47 at different concentrations. […] Treatment with ZAF-46 led to 1.4 log reduction at 10 µM and 2.4 log reduction at 20 µM (Figure 2c) while treatment with ZAF-47 led to 0.8 log reduction at 5 µM, 1.1 log reduction at 10 µM and 2.1 log reduction at 20 µM (Figure 2d). CC50 and IC50 for both compounds were determined and used to derive their SI (Table 2). ZAF-47 was selected for further downstream analysis due to its higher SI value which indicate higher pharmacological value for clinical use.
(§2) To determine the cytotoxicity profiles of the hits, cell viability assay was performed. Seeded 96-well plates, with 2 × 10^4 RD cells per well, were incubated overnight at 37 °C with 5% CO2. Different concentrations of drug hits, diluted by reduced serum DMEM, were used to treat the seeded cells for 12 h at 37 °C with 5% CO2. Reduced serum DMEM, was employed as the negative control and 0.1% DMSO as the vehicle control for this step. Subsequently, the supernatant was replaced with alamarBlue^TM Cell Viability Reagent (Thermo Fisher Scientific, Waltham, MA, USA) (100 µL), diluted 10-fold in reduced serum DMEM, and incubated for 3 h at 37 °C with 5% CO2. Fluorescence intensity in each well was measured at 570 nm excitation wavelength and 600 nm emission wavelength in each well by the Infinite^TM 200 series microplate reader (Tecan, Männedorf, Switzerland) and normaliszd with the negative control to determine the relative cell viability.
In general terms: Alamar Blue is a resazurin reagent that responds to reducing activity.

Data set [2] deals with replication-competent EV-A71 RNA replicon. The data set can be described thus: Nano-luciferase reporter assay, replication-competent replicon. Format: cell-based, human enterovirus A71 (EV-A71). The note with it: RD cells, 12 h; ZAF-47 different concentrations, GuHCl 1 mM. The procedure: To identify specifically which of these two intrinsically linked processes that ZAF-47 inhibits, we transfected RD cells with EV-A71 RNA replicons that were either replication-competent or replication-defective and subsequently treated them with different concentrations of ZAF-47 for 12 h before detecting for luminescence. Both forms of replicons were previously established and validated. The replication-competent replicon is capable of self-replicating as it contains an intact 3D region that encodes for 3D polymerase (3D^pol) responsible for RNA replication (Figure 4c). […] In contrast, the replication-defective replicon contains a 3D region with 159 nucleotide deletion which would produce a non-functional 3D protein and impair RNA replication (Figure 4c). As such, cells containing the replication-defective replicon express luciferase upon IRES translation of the original replicons only. The transfected cells were also treated with negative control, DMSO and positive controls, guanidine hydrochloride (GuHCl) and cycloheximide (CHX), a RNA replication-specific inhibitor [50] and a general translation inhibitor [51] respectively.
Seeded 96-well plates, with 2 × 10^4 RD cells per well, were incubated overnight at 37 °C with 5% CO2. […]
Background: A reporter such as luciferase makes a cellular process visible.

Data set [3] can be described thus: Cell viability assay (alamarBlue). The data set is classed as cell-based, human. The conditions noted are these: human, RD cells. The procedure: as §1, §2
Data set [4] relates to EV-A71. The experiment in a line: Post-treatment assay with viral plaque assay. The data set is classed as cell-based, human enterovirus A71 (EV-A71) strain 41. The note with it: for reduction in viral titre: post-treatment, 12 hpi. The procedure:
as §1
To determine the inhibitory profiles of the hits, post treatment assay was performed. Seeded 24-well plates, with 1.5 × 10^5 RD cells per well, were incubated overnight at 37 °C with 5% CO2. The seeded cells were infected with EV-A71 (100 µL per well, MOI = 1) for 1 h at 37 °C with 5% CO2 and then rinsed with 1 mL of PBS twice. Different concentrations of the hits were used to treat the infected cells for 12 h at 37 °C with 5% CO2. At 12 hpi, the plates were frozen and thawed for 2 cycles (−80°C; 37 °C) before collection of supernatants to measure the viral titres via viral plaque assay.
Measurement of the viral titres from collected supernatants was derived from viral plaque assays. To do this, 24-well plates, seeded with 2.4 × 10^5 RD cells per well, were used in plaque assays for EV-A71, EV-D68, Echo7, CV-A6, CV-A16 and CV-A24 while 24-well plates, seeded with 1.2 × 10^5 Vero cells per well, were used in plaque assays for CV-B5. Seeded cells were incubated overnight at 37 °C with 5% CO2. Viral supernatants were diluted from 10^−1 to 10^−7 in reduced serum DMEM before infecting the cells with a volume of 100 µL for 1 h at 37 °C with 5% CO2 (33 °C instead for EV-D68). Cells were rinsed twice with PBS before overlaying with 1 mL of reduced serum DMEM containing 0.5% agarose (Vivantis, Shah Alam, Malaysia). Cells infected with Echo7 supernatants were incubated for 2 days, cells infected with CV-A24 and CV-B5 supernatants were incubated for 3 days and cells infected with EV-A71, CV-A6, CV-A16 and EV-D68 supernatants were incubated for 4 days for the formation of plaques. Subsequently, the cells were fixed and stained overnight with 4% paraformaldehyde and 1% crystal violet (Sigma-Aldrich). Subsequent formation of viral plaques was counted manually to quantify the viral titre in PFU/mL

Details of data set [5]: method as in PMID 34816382. The note with it: cited from earlier work.
Details of data set [6]: method as in PMID 34816382. The note with it: cited from earlier work. The source holds these as a separate data set.

As to `CC1(CO)C(O)CCC2(C)C(CC=C3C(=O)OCC3Oc3ccc([N+](=O)[O-])cc3Cl)C3(CCC12)CO3` (stereo not drawn) [AGP-253, 14S-(2′-Chloro-4′-Nitrophenoxy)-8R/S, 17-Epoxy Andrographolide], the “Inhibition Rate (%)” value with EV-A71 [1] (10 µM, 12 h) is on record as 98.91%. For the same molecule, the cytotoxicity result in the data set on RD cells was “low cytotoxicity”.

As for `Cl.N=C(N)N` [GuHCl, guanidine hydrochloride, reference compound], in data set [2], the “luminescence, replication-competent replicon” value is “significant decrease in luminescence”.

One may read the inhibition as the drop in the measured response relative to a control, in per cent. Usually CC50 stands for the concentration giving 50% cytotoxicity. A lower CC50 goes with harm at low concentration. As usually defined, the IC50 is the point on the concentration scale where inhibition reaches its midpoint. A high value points to lower potency. `CC(=O)OC[C@]1(C)[C@H](O)CC[C@@]2(C)C(C/C=C3/C(=O)OC[C@@H]3Oc3cccc4cccnc34)=C(C)CC[C@H]12` [ZAF-46, (14β)-(8′-Quinolinoxy)-9-dehydro-17-hydro-19-acetoxy-andrographolide]: the “Nuclei Count” value in the data set on EV-A71 [1] (10 µM, 12 h, 0.1% DMSO wells 998) is reported as 1037. In addition, the inhibition at 10 µM in the data set with EV-A71 [1] (Enterovirus A, EVA71, 12 h, read-out: Inhibition Rate (%)) was found to be 96%. Besides, the midpoint of cytotoxicity in data set [3], the CC50 at 12 h, lay at 29.9 µM. Besides, in the data set on RD cells, the cytotoxicity entry is “low cytotoxicity”. Further, the “reduction in viral titre” value in the data set with EV-A71 [4] (10 µM) worked out at 1.4 log; in the data set with EV-A71 [4] (20 µM) it was 2.4 log. The molecule further gave an IC50 in the data set on EV-A71 [4] (Enterovirus A, EVA71, EV-A71-infected RD cells, MOI = 1, 12 h treatment, viral plaque assay) of 4.44 µM. The “Selectivity Index (SI)” value in the data set on EV-A71 [4] (SI = CC50/IC50) is listed as 6.73.

For `C=C1CC[C@@H]2[C@](C)(CO)[C@H](O)CC[C@@]2(C)[C@@H]1C/C=C1/C(=O)OC[C@H]1O` [andrographolide], in data set [5], the water solubility result is given as “low water solubility”. Moreover, in data set [6], the bioavailability result was “poor bioavailability”.

(Values after publication PMC8880313, “Discovery of Novel Andrographolide Derivatives as Antiviral Inhibitors against Human Enterovirus A71” (Pharmaceuticals, 2022).)
